Results on 1 compound are retold here after US5126344A, “Diazine derivatives and pharmaceutical use” (Imperial Chemical Industries PLC, priority 1989, dated 1992).

Structures are written as SMILES.

Test [1] has as its target T1, angiotensin II (AII) receptors (Cavia porcellus, UniProt Q9WV26).
T1 construct: the source of cell surface membranes is the guinea pig adrenal gland; from tissue; host or cells: guinea pig adrenal gland, cell surface membrane fraction
T1 sequence (Q9WV26 1-359): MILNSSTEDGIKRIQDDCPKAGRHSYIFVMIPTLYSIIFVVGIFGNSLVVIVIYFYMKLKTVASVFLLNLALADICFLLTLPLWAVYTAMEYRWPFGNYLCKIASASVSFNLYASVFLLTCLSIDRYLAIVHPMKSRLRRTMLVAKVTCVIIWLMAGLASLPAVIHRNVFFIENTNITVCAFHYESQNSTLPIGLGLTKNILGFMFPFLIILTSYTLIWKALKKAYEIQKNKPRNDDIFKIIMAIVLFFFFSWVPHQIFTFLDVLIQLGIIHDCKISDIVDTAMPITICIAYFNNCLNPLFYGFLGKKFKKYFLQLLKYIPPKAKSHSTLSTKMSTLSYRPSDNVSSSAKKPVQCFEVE
Put plainly: Test A: displacement of radiolabelled AII binding to cell surface membrane fraction from guinea pig adrenal gland. As to conditions: guinea pig adrenal gland membranes, read-out: IC50 (concentration for 50% displacement of radiolabelled AII binding). On the procedure:
This in vitro procedure involves the incubation of the test compound initially at a concentration of 100 micromolar (or less) in a buffered mixture containing fixed concentrations of radiolabelled AII and a cell surface membrane fraction prepared from a suitable angiotensin target tissue. In this test, the source of cell surface membranes is the guinea pig adrenal gland which is well known to respond to AII. Interaction of the radiolabelled AII with its receptors (assessed as radiolabel bound to the particulate membrane fraction following removal of unbound radiolabel by a rapid filtration procedure such as is standard in such studies) is antagonized by compounds which also bind to the membrane receptor sites and the degree of antagonism (observed in the test as displacement of membrane-bound radioactivity) is determined readily by comparing the receptor-bound radioactivity in the presence of the test compound at the specified test concentration with a control value determined in the absence of the test compound. Using this procedure compounds showing at least 50% displacement of radiolabelled AII binding at a concentration of 10^-4 M are retested at lower concentrations to determine their potency. […]

Test [2] deals with pressor responses induced by AII. Put plainly: Test C: antagonism of AII-induced pressor responses in terminally-anaesthetised or conscious rats. As to conditions: iv, rat, i.v. administration. In kind it is in vivo. On the procedure:
This in vivo test involves using terminally-anaesthetised or conscious rats in which an arterial catheter has been implanted under anaesthesia for the measurement of changes in blood pressure. The AII antagonistic effects of the test compound following oral or parenteral administration, are assessed against pressor responses induced by AII. To ensure that the effect is specific the effect of the test compound on vasopressin-induced pressor responses may also be determined in the same preparation.

What is called ED50 is the dose at which the effect has come halfway, by size or by number of responders. With `CCc1cc(OCc2ccc(-c3ccccc3-c3nnn[nH]3)cc2)c2nc(OC)ccc2n1.Cl` [Example 4, 2-ethyl-6-methoxy-4-[(2'-(1H-tetrazol-5-yl)-biphenyl-4-yl)methoxy]-1,5-naphthyridine hydrochloride], the IC50 in test [1] was determined as 20 nM. In test [2], this compound displayed an ED50 of 0.6 mg/kg.
